Results from the supplement of paper PMC10949913.

Experiments:
Experiment in all cases: area under concentration-response curve (viability) (AUC (a.u.)); higher = less active
Details in all cases: 48 h
NCI-H295R = system: NCI-H295R
How it was run: (§1)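 Cells from three adrenocortical carcinoma lines were seeded at 500–1,000 cells/well in 5 µL medium in 1,536-well plates. Each library compound was added as 23 nL at 11 concentrations, and after 48 h CellTiter-Glo was added for 15 minutes at room temperature before reading luminescence. Plate-wise normalisation to vehicle and empty-well controls preceded curve fitting. AC50 and area under the curve were calculated only for inhibitory or non-responding curve classes.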

CU-ACC1 = system: CU-ACC1
How it was run: as §1

CU-ACC2 = system: CU-ACC2
How it was run: as §1

c1ccc(CNCc2ccc(CN3CCCNCCNCCCNCC3)cc2)nc1
area under concentration-response curve (NCI-H295R): 542
area under concentration-response curve (CU-ACC1): 514
area under concentration-response curve (CU-ACC2): 601

Nc1cc(c(cc1S(=O)(N)=O)S(N)(=O)=O)C(/Cl)=C(/Cl)Cl
area under concentration-response curve (NCI-H295R): 531
area under concentration-response curve (CU-ACC1): 505
area under concentration-response curve (CU-ACC2): 590

OCCn1cc(-c2ccc3c(c2)CC/C3=N\O)c(-c2ccncc2)n1
area under concentration-response curve (NCI-H295R): 538
area under concentration-response curve (CU-ACC1): 492
area under concentration-response curve (CU-ACC2): 595

CC(=O)N1CCC(Nc2cc(C(=O)NC[C@H](O)CN3CCc4ccccc4C3)ncn2)CC1
area under concentration-response curve (NCI-H295R): 473
area under concentration-response curve (CU-ACC1): 450
area under concentration-response curve (CU-ACC2): 558

COc1ccc(-n2cnc3cc(C(=O)N4CCCCC4)ccc32)cc1
area under concentration-response curve (NCI-H295R): 479
area under concentration-response curve (CU-ACC1): 502
area under concentration-response curve (CU-ACC2): 534

Cc1cccc(-c2[nH]c(CNc3ccccc3F)nc2-c2ccc3ncnn3c2)n1
area under concentration-response curve (NCI-H295R): 463
area under concentration-response curve (CU-ACC1): 483
area under concentration-response curve (CU-ACC2): 510

C[C@H](Nc1ncnc2[nH]cnc12)c1cc2ccc(F)cc2nc1-c1ccccn1
area under concentration-response curve (NCI-H295R): 512
area under concentration-response curve (CU-ACC1): 466
area under concentration-response curve (CU-ACC2): 571

O=C(O)CNC(=O)c1nc(Cl)c2ccccc2c1O
area under concentration-response curve (NCI-H295R): 529
area under concentration-response curve (CU-ACC1): 498
area under concentration-response curve (CU-ACC2): 604

Cc1nc2c([nH]1)-c1ccccc1N(C(=O)c1ccc(NC(=O)c3ccccc3-c3ccccc3)cc1)CC2
area under concentration-response curve (NCI-H295R): 487
area under concentration-response curve (CU-ACC1): 437
area under concentration-response curve (CU-ACC2): 542

CN[C@@H](C)C(=O)N[C@@H]1C(=O)N(Cc2c(C)ccc3ccccc23)c2ccc(C#N)cc2N(C(C)=O)[C@H]1C
area under concentration-response curve (NCI-H295R): 549
area under concentration-response curve (CU-ACC1): 501
area under concentration-response curve (CU-ACC2): 474

CCCOc1ccc(C(=O)OCCN(CC)CC)cc1N
area under concentration-response curve (NCI-H295R): 481
area under concentration-response curve (CU-ACC1): 377
area under concentration-response curve (CU-ACC2): 530

CCC(CC)CC1(C(=O)Nc2ccccc2SC(=O)C(C)C)CCCCC1
area under concentration-response curve (NCI-H295R): 537
area under concentration-response curve (CU-ACC1): 519
area under concentration-response curve (CU-ACC2): 593

CC(C[N+](C)(C)C)OC(N)=O (stereo not drawn)
area under concentration-response curve (NCI-H295R): 591
area under concentration-response curve (CU-ACC1): 569
area under concentration-response curve (CU-ACC2): 662

CCCCCCCCCCCCCCCCCCCCCCO
area under concentration-response curve (NCI-H295R): 525
area under concentration-response curve (CU-ACC1): 538
area under concentration-response curve (CU-ACC2): 562

CC(=O)[C@H]1CC[C@H]2[C@@H]3C/C=C4/C[C@@H](O)CC[C@]4(C)[C@H]3CC[C@]12C
area under concentration-response curve (NCI-H295R): 530
area under concentration-response curve (CU-ACC1): 517
area under concentration-response curve (CU-ACC2): 627

C[C@H]1O[C@H]([C@H](O)[C@@H]1O)N2\C=C(F)/C(=O)NC2=O
area under concentration-response curve (NCI-H295R): 550
area under concentration-response curve (CU-ACC1): 559
area under concentration-response curve (CU-ACC2): 621

C[N+](C)(C)CC(=O)O
area under concentration-response curve (NCI-H295R): 560
area under concentration-response curve (CU-ACC1): 501
area under concentration-response curve (CU-ACC2): 611

O=c1oc2c(O)c(O)cc3c(=O)oc4c(O)c(O)cc1c4c23
area under concentration-response curve (NCI-H295R): 517
area under concentration-response curve (CU-ACC1): 482
area under concentration-response curve (CU-ACC2): 579

CCN(CC)CCCC(C)Nc1ccnc2cc(Cl)ccc12 (stereo not drawn)
area under concentration-response curve (NCI-H295R): 583
area under concentration-response curve (CU-ACC1): 464
area under concentration-response curve (CU-ACC2): 638

CC(C)NCC(O)c1ccc(O)c(O)c1 (stereo not drawn)
area under concentration-response curve (NCI-H295R): 502
area under concentration-response curve (CU-ACC1): 487
area under concentration-response curve (CU-ACC2): 548

NNc1nncc2ccccc12
area under concentration-response curve (NCI-H295R): 534
area under concentration-response curve (CU-ACC1): 525
area under concentration-response curve (CU-ACC2): 568

N[S+](=O)([O-])c1cc(Cl)c(Cl)c([S+](N)(=O)[O-])c1
area under concentration-response curve (NCI-H295R): 524
area under concentration-response curve (CU-ACC1): 459
area under concentration-response curve (CU-ACC2): 528

CC(N)C12CC3CC(CC(C3)C1)C2 (stereo not drawn)
area under concentration-response curve (NCI-H295R): 494
area under concentration-response curve (CU-ACC1): 507
area under concentration-response curve (CU-ACC2): 523

COC1=C(N2CCNC(C)C2)C(=CC3=C1N(\C=C(C(O)=O)/C3=O)C4CC4)F (stereo not drawn)
area under concentration-response curve (NCI-H295R): 509
area under concentration-response curve (CU-ACC1): 543
area under concentration-response curve (CU-ACC2): 609

Clc1cc2c(NC3CCCC3)nnc(-c3ccncc3)c2cc1Cl
area under concentration-response curve (NCI-H295R): 518
area under concentration-response curve (CU-ACC1): 581
area under concentration-response curve (CU-ACC2): 609

Nc1nc(F)nc2c1ncn2[C@@H]1O[C@H](COP(=O)(O)O)[C@@H](O)[C@@H]1O
area under concentration-response curve (NCI-H295R): 514
area under concentration-response curve (CU-ACC1): 527
area under concentration-response curve (CU-ACC2): 521

Cc1onc(-c2ccccc2)c1-c1ccc([S+](N)(=O)[O-])cc1
area under concentration-response curve (NCI-H295R): 535
area under concentration-response curve (CU-ACC1): 457
area under concentration-response curve (CU-ACC2): 570

COc1cc2nccc(Oc3ccc(NC(=O)NC4CC4)c(Cl)c3)c2cc1C(N)=O
area under concentration-response curve (NCI-H295R): 582
area under concentration-response curve (CU-ACC1): 516
area under concentration-response curve (CU-ACC2): 623

COc1ccc(CCC(=O)Nc2nc3ccc(Cl)cc3s2)cc1OC
area under concentration-response curve (NCI-H295R): 563
area under concentration-response curve (CU-ACC1): 575
area under concentration-response curve (CU-ACC2): 600

Cc1ccnc(N[S+](=O)([O-])c2ccc(NC(=O)Nc3ccc([S+](=O)([O-])Nc4nccc(C)n4)cc3)cc2)n1
area under concentration-response curve (NCI-H295R): 537
area under concentration-response curve (CU-ACC1): 499
area under concentration-response curve (CU-ACC2): 566

C[C@H]1CN(C[C@@H](C)N1)C2=C(F)C3=C(C(=C2F)N)C(=O)\C(=C/N3C4CC4)C(O)=O
area under concentration-response curve (NCI-H295R): 537
area under concentration-response curve (CU-ACC1): 512
area under concentration-response curve (CU-ACC2): 503

Cc1ncc([N+](=O)[O-])n1CC(C)O (stereo not drawn)
area under concentration-response curve (NCI-H295R): 566
area under concentration-response curve (CU-ACC1): 554
area under concentration-response curve (CU-ACC2): 644

CNC[C@H](O)[C@@H](O)[C@H](O)[C@H](O)CO
area under concentration-response curve (NCI-H295R): 547
area under concentration-response curve (CU-ACC1): 421
area under concentration-response curve (CU-ACC2): 542

CNC(=O)Cn1cc(-c2ccc3c(c2)C(F)CC32NC(=O)N(CC(=O)N(Cc3ccc(F)cc3)C(C)C(F)(F)F)C2=O)cn1 (stereo not drawn)
area under concentration-response curve (NCI-H295R): 512
area under concentration-response curve (CU-ACC1): 500
area under concentration-response curve (CU-ACC2): 546

Cc1cnc(C(=O)O)c[n+]1[O-]
area under concentration-response curve (NCI-H295R): 526
area under concentration-response curve (CU-ACC1): 513
area under concentration-response curve (CU-ACC2): 579

CCCc1nc2c(C)cc(-c3nc4ccccc4n3C)cc2n1Cc1ccc(-c2ccccc2C(=O)O)cc1
area under concentration-response curve (NCI-H295R): 599
area under concentration-response curve (CU-ACC1): 561
area under concentration-response curve (CU-ACC2): 639

OC(c1ccc(-c2ccc(CN3CCN(Cc4ccncc4)CC3)cc2)c(F)c1)(C(F)(F)F)C(F)(F)F
area under concentration-response curve (NCI-H295R): 581
area under concentration-response curve (CU-ACC1): 584
area under concentration-response curve (CU-ACC2): 638

COc1cc([C@H]2Oc3cc([C@H]4Oc5cc(O)cc(O)c5C(=O)[C@@H]4O)ccc3O[C@@H]2CO)ccc1O
area under concentration-response curve (NCI-H295R): 587
area under concentration-response curve (CU-ACC1): 585
area under concentration-response curve (CU-ACC2): 632

CCc1nc(N)nc(N)c1-c1ccc(Cl)cc1
area under concentration-response curve (NCI-H295R): 521
area under concentration-response curve (CU-ACC1): 483
area under concentration-response curve (CU-ACC2): 564

CC(C)(N[S+](=O)([O-])c1ccc2c(Cl)cnc(NC(=N)N)c2c1)C(=O)O
area under concentration-response curve (NCI-H295R): 570
area under concentration-response curve (CU-ACC1): 527
area under concentration-response curve (CU-ACC2): 609

C[C@]12CC[C@H]3[C@@H](CCC/4=C/C(=O)CC[C@]34C)[C@@H]1CC[C@@H]2OC(=O)CCC5CCCC5
area under concentration-response curve (NCI-H295R): 569
area under concentration-response curve (CU-ACC1): 581
area under concentration-response curve (CU-ACC2): 618
